Measurements taken from patent US20250236596A1, “HYDROXYLAMINE-BASED EGFR INHIBITORS FOR TREATMENT OF CANCER WITH BRAIN METASTASES” (University of Georgia Research Foundation, Inc., priority 2022, published 2025).
Entries after “also recorded” stand apart in the source; their conditions may differ.

Assays:
Caco-2 cells = experiment: Caco-2 cell permeability assay; format: in vitro ADME; details: result in words
Description: Compounds were evaluated at Pharmaron Inc. for their ability to permeate Caco-2 cells and MDCKII-MDR1 cells. A 96-well HTS Transwell plate (Corning) was used for the Caco-2 and MDCKII-MDR1 cell seeding. Caco-2 cells were seeded at a density of 6.86×10^5 cells/mL and cultivated for 14-18 days prior to assays. MDCKII-MDR1 cells were seeded at a density of 1.56×10^6 cells/mL and cultivated for 4-8 days prior to assays. To determine the rate of drug transport in both the absorptive (apical to basolateral (A-B)) and secretory (basolateral to apical (B-A)) directions, compounds (5 μM in DMSO for Caco-2 cells, and 1 μM in DMSO for MDCKII-MDR1 cells) were added to the donor wells. Plates were incubated at 37° C. for 2 h and samples (50 μL) were taken at the beginning and end of the incubation in both the donor and acceptor wells with the assay run in duplicate (n=2). Samples were analyzed by LC-MS/MS. The apparent permeability coefficient (Papp) in units (cm/s×10^−6) was calculated using the following equation.
where, VA represents the volume (mL) in the acceptor well. Area is the surface of the membrane (0.143 cm^2 for Transwell-96 well plate) and time is the total transport time in sec.
The efflux ratio was determined using the following equation: Efflux ratio=Papp (B-A)/Papp(A-B)
Where, Papp (B-A) indicates the apparent permeability in the basolateral to apical direction, and Papp (A-B) indicates the apparent permeability in the apical to basolateral direction.

[1] = Metabolic stability in liver microsomes; format: in vitro ADME; details: human and rat / multiple species; result in words
Description: Assessment of the compounds metabolic stability in incubations containing liver microsomes and hepatocytes of human and rat using the compound depletion approach was performed by Pharmaron Inc. Compound 15 underwent additional stability evaluation in monkey and dog hepatocytes. Microsome stability was assessed in duplicate (n=2) in the presence and absence of NADPH with liver microsomes (0.5 mg/mL) from human (BD Gentest) and SD rat (BD Gentest). Compounds were incubated in liver microsomes at 1 μM and samples (30 μL) were taken at 0.5, 15, 30, 45 and 60 min time points for analysis by LC-MS/MS. Hepatocyte stability was assessed in duplicate (n=2) at a working cell density of 0.5×10^6 cells/mL with hepatocytes from human (BioIVT), SD rat (BioIVT), cynomolgous monkey (RILD) or beagle dog (BioIVT). Compounds were incubated in hepatocytes at 1 μM and samples (25 μL) were taken at 0.5, 15, 30, 60, 90 and 120 min time points for analysis by LC-MS/MS. The in vitro half-life and intrinsic clearances were determined as previously described.^19
In vitro half-life (in vitro t1/2) was determined from the slope value in: in vitro t1/2=−(0.693/k).
Where, k, was determined by linear regression of the natural logarithm of the remaining percentage of the parent drug vs incubation time curve.

[2] = tested on: Chinese hamster ovary (CHO-K1) cells; experiment: In vitro micronucleus test; format: cell-based; details: for concentration to which negative micronucleus result is valid: cytotoxicity above
Description: Compound 15 was assessed for genotoxicity by Eurofins Panlabs. using the in vitro micronucleus test in Chinese hamster ovary (CHO-K1) cells as previously described.^22 Compound 15 was incubated in a 96-well plate format at varying concentrations (8, 16, 31, 62, 125, 250, 500 and 1000 μM) for 4 h at 37° C. with metabolic activation by rat liver S9 and 24 h at 37° C. without metabolic activation by rat liver S9. High content analysis and fluorescence imaging were used to detect micronuclei and compared against positive controls (cyclophosphamide (ran at 7.2 μM) and mitomycin C (ran at 0.3 μM)). Significances of the positive counts between the treatment and control were determined by one-tailed t-test with two sample equal variance.

With `COc1cc2ncnc(Nc3cccc(Cl)c3F)c2cc1OCCON1CCN(C)CC1` [Compound 15, N-(3-chloro-2-fluorophenyl)-7-methoxy-6-(2-((4-methylpiperazin-1-yl)oxy)ethoxy)quinazolin-4-amine] the efflux (Caco-2 cells) was “reduced efflux ratios”, the permeability (Caco-2 cells) was “remarkably enhanced permeability” and the “stability in liver microsomes” value [1] was “good stability”. The “concentration to which negative micronucleus result is valid” value ([2]; +rat liver S9) was no more than 31 µM, the “genotoxicity in in vitro micronucleus test” value ([2]; CHO-K1, with and without rat liver S9) was “negative; also recorded: neither mutagenic nor genotoxic potential” and the “concentration to which negative micronucleus result is valid” value ([2]; −rat liver S9) was no more than 8 µM.
